Test results published in patent publication US20150368669A1, “GENE DELIVERY SYSTEM […] GENE AND PHARMACEUTICAL COMPOSITION USING RELAXIN” (INDUSTRY-ACADEMIC COOPERATION FOUNDATION, YONSEI UNIVERSITY, priority 2004, published 2015).

How the values were obtained:
Assay type in all cases: cell-based, human
C33A cells = test: Flow cytometry, Annexin-V and PI dual staining, C33A
Protocol: To examine apoptosis induced by relaxin, human tumor cell lines, U343, U87MG, C33A, Hep3B and A549, were introduced to 25 T culture flasks and 24 hr later, infected with Ad-ΔE1B or Ad-ΔE1B-RLX adenovirus at an MOT of 0.5-5. Cells were treated with 0.1-1 μM CPT-11 […] as a positive control and treated with PBS as a negative control. After 48 hr, 72 hr and 96 hr of infection, the infected cells were collected and fixed in 70% ethanol at 4° C. for 24 hr. Following the fixation, the cells were incubated with a mixture of PI (propidium iodide, […]) and RNase for 15 min and the analysis by flow cytometry was performed. In addition, to examine early apoptosis induced by relaxin, several human tumor cell lines were infected with Ad-ΔE1B or Ad-ΔE1B-RLX adenovirus as described above. The infected cells were collected and then processed for Annexin V/PI dual staining according to manufacturer's instruction in the ApoAlert V-FITC apoptosis kit (Clontech, Palo Alto, Calif.), followed by flow cytometric analysis.

U343 = test: TUNEL assay, U343
Protocol: (§1) U343 (5×10^4), U87MG (5×10^4), C33A (5×10^5), Hep3B (4×10^5), and A549 (5×10^4) cells were plated onto a chamber slide and then infected with adenovirus at an MOT of 0.2-20. Following 24 hr and 48 hr of infection, medium was removed and TUNNEL assay was carried out according to the manufacturer's instruction of ApopTag kit (Intergen, Purchase, N.Y.). For color development, cells were incubated with peroxidase-conjugated streptavidin and then diaminobenzidine (DAKO, Carpinteria, Calif.). At the time that color of cells became brown, cells were counterstained with 0.5% methyl green for 10 min and observed under microscope in more than 4 selected fields. The ratio of stained cells to total cells was calculated.

U87MG = test: TUNEL assay, U87MG
Protocol: as §1

C33A = test: TUNEL assay, C33A
Protocol: as §1

Hep3B = test: TUNEL assay, Hep3B
Protocol: as §1

A549 = test: TUNEL assay, A549
Protocol: as §1

CC[C@@]1(O)C(=O)OCc2c1cc1n(c2=O)Cc2cc3ccccc3nc2-1 [CPT, camptothecin]
apoptotic rate (Annexin-V+/PI−) (C33A cells): 57.10% | Proportion of apoptotic cells (%) (U343): 53.5 ± 7.45% | Proportion of apoptotic cells (%) (U87MG): 83.0 ± 29.29% | Proportion of apoptotic cells (%) (C33A): 60.1 ± 25.41% | Proportion of apoptotic cells (%) (Hep3B): 71.2 ± 15.73% | Proportion of apoptotic cells (%) (A549): 37.5 ± 5.35%
